Values after ≈ are worked out from the molar mass of the structure shown.

Series [1] in a line: The compound was evaluated for area under the curve in marmosets. In kind it is ADME. As to conditions: callithrix, in vivo.
Series [2] is described as follows: The half life period in marmosets. Format: ADME. The following applies: callithrix, in vivo.
Series [3] deals with Beta-lactamase TEM (Escherichia coli) (UniProt P62593). The series can be described thus: The dissociation constant of compound was tested for beta-Lactamase stability.
Sequence of Beta-lactamase TEM (Escherichia coli) (P62593 whole entry): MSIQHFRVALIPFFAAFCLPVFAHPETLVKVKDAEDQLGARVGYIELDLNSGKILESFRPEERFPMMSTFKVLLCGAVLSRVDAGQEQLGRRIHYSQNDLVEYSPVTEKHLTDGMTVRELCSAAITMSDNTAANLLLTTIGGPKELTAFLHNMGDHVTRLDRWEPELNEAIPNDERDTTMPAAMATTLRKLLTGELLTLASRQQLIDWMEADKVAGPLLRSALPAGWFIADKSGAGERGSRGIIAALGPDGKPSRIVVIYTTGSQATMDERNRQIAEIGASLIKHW
Series [4] is filed under the species Homo sapiens. The series can be described thus: Compound is evaluated for serum protein binding in human blood (protein binding in marmoset blood). Format: functional.
Series [5] is described as follows: The compound was tested for % urinary recovery in marmosets at the dose of 3 mg/kg. In kind it is ADME, organism-based. Also noted: dose 3 mg/kg. As to conditions: callithrix, urine, read-out: Recovery.
Series [6] has as its system Staphylococcus aureus. The series can be described thus: microbe, parasite or virus in culture.
The test system of series [7] is Citrobacter freundii. The series can be described thus: microbe, parasite or virus in culture.
Description: Minimum inhibitory concentration in Citrobacter freundii, DR 382031 constitutive depressed type 1
Series [8] has as its system Citrobacter freundii. The experiment in a line: microbe, parasite or virus in culture. This is another data set of the same source.
Description: Minimum inhibitory concentration in Citrobacter freundii, I+382010 inducible type 1 lactamase producer
Series [9] relates to Enterobacter cloacae. The experiment in a line: microbe, parasite or virus in culture.
Description: Minimum inhibitory concentration in Enterobacter cloacae, DR 401108 constitutive depressed type 1 lactamase producer
Series [10] has as its system Escherichia coli. The experiment in a line: microbe, parasite or virus in culture.
Description: In vitro minimum inhibitory concentration against Escherichia coli (DC0 parent organism).
For series [11], the system named is Enterobacter cloacae. The experiment in a line: microbe, parasite or virus in culture. The source holds these as a separate data set.
Description: Minimum inhibitory concentration in Enterobacter cloacae, P99+ constitutive depressed type 1 lactamase producer
In series [12] the test system is Enterobacter cloacae. The experiment in a line: microbe, parasite or virus in culture. This is another data set of the same source.
Description: Minimum inhibitory concentration in Enterobacter cloacae, I+401029 inducible type 1 lactamase producer
Series [13] deals with Enterobacter cloacae. The experiment in a line: microbe, parasite or virus in culture. This is another data set of the same source.
Description: Minimum inhibitory concentration in Enterobacter cloacae, P99- inducible type 1 lactamase producer
Series [14] relates to Escherichia coli. The series can be described thus: microbe, parasite or virus in culture. This is another data set of the same source.
Description: In vitro minimum inhibitory concentration against Escherichia coli (DC2 permeability mutant).
Series [15] deals with Pseudomonas aeruginosa. The experiment in a line: microbe, parasite or virus in culture.
Description: Minimum inhibitory concentration in Pseudomonas aeruginosa, 18S inducible type 1 lactamase producer
The subject of series [16] is Pseudomonas aeruginosa. The experiment in a line: microbe, parasite or virus in culture. The source holds these as a separate data set.
Description: In vitro minimum inhibitory concentration against Pseudomonas aeruginosa (PU21).
The subject of series [17] is Pseudomonas aeruginosa. The experiment in a line: microbe, parasite or virus in culture. This is another data set of the same source.
Description: Minimum inhibitory concentration in Pseudomonas aeruginosa, 18SH constitutive depressed type 1 lactamase producer
Series [18] relates to Pseudomonas aeruginosa. The series can be described thus: microbe, parasite or virus in culture. The source holds these as a separate data set.
Description: Minimum inhibitory concentration in Pseudomonas aeruginosa,799WT parent organism
Series [19] concerns Providencia stuartii. The experiment in a line: microbe, parasite or virus in culture.
Description: Minimum inhibitory concentration in Pseudomonas stuartii, DR 442049 constitutive depressed type 1 lactamase producer
The subject of series [20] is Providencia stuartii. The experiment in a line: microbe, parasite or virus in culture. The source holds these as a separate data set.
Description: Minimum inhibitory concentration in Pseudomonas stuartii, I+442019 inducible type 1 lactamase producer
For series [21], the system named is Staphylococcus aureus. The series can be described thus: microbe, parasite or virus in culture. This is another data set of the same source.
Series [22] has as its system Pseudomonas aeruginosa. The experiment in a line: microbe, parasite or virus in culture. This is another data set of the same source.
Description: Minimum inhibitory concentration in Pseudomonas aeruginosa,799/61 permeability mutant
Series [23] deals with Citrobacter freundii. The experiment in a line: The compound was tested for minimum inhibitory concentration in Citrobacter freundii, DR 382031 constitutive depressed type 1. In kind it is functional.
Series [24] deals with Citrobacter freundii. The experiment in a line: The compound was tested for minimum inhibitory concentration in Citrobacter freundii, I+382010 inducible type 1 lactamase producer. In kind it is functional.
In series [25] the test system is Enterobacter cloacae. The series can be described thus: The compound was tested for minimum inhibitory concentration in Enterobacter cloacae,I+401029 inducible type 1 lactamase producer. Format: functional.
For series [26], the system named is Enterobacter cloacae. The experiment in a line: The compound was tested for minimum inhibitory concentration in Enterobacter cloacae,P99- inducible type 1 lactamase producer. Format: functional.
Series [27] has as its system Pseudomonas aeruginosa. The series can be described thus: The compound was tested for minimum inhibitory concentration in Pseudomonas aeruginosa,18S inducible type 1 lactamase producer. Format: functional.
Series [28] relates to Providencia stuartii. The series can be described thus: (§1) The compound was tested for minimum inhibitory concentration in Pseudomonas stuartii,I+442019 inducible type 1 lactamase producer. Format: functional.
Series [29] relates to Pseudomonas aeruginosa. The series can be described thus: The compound was tested for minimum inhibitory concentration in Pseudomonas aeruginosa,799WT parent organism. Format: functional.
For series [30], the system named is Citrobacter freundii. The series can be described thus: The compound was tested for minimum inhibitory concentration in Citrobacter freundii, Citrobacter freundii, DR 382031. Format: functional.
For series [31], the system named is Pseudomonas aeruginosa. The experiment in a line: The compound was tested for minimum inhibitory concentration in Pseudomonas aeruginosa,799/61 permeability mutant. Format: functional.
For series [32], the system named is Providencia stuartii. The description is as §1. Format: functional, pseudomonas stuartiii.
Series [33] can be described thus: physchem.
The subject of series [34] is Staphylococcus aureus. The experiment in a line: The compound was tested for minimum inhibitory concentration in Staphylococcus aureus Oxford penicillin sensitive Staphylococcus aureus. Format: functional.
Series [35] relates to Staphylococcus aureus. The series can be described thus: The compound was tested for minimum inhibitory concentration in Staphylococcus aureus,147N penicillin sensitive Staphylococcus aureus. In kind it is functional.

By half-life is commonly meant the time in which the quantity being followed falls by half. Low values mean rapid decline, high ones slow decline. `CCn1cc(C(=O)NCC2=C(C(=O)O)N3C(=O)[C@@H](NC(=O)/C(=N\OC(C)(C)C(=O)O)c4csc(N)n4)C3SC2)c(=O)c2cc(O)c(O)cc21` (some centres not stated): the AUC in series [1] was determined as 238.5 mg/h/L. For the same compound, the half-life in series [2] was 3.47 h. Also, the pKa in [3] is 7.2. Besides, the Activity in series [4] was found to be 99.2%. The dose excreted in series [5] stood at 13.9%. Besides, the MIC in series [6] amounted to 16 µg/mL (≈ 22.4 µM); in [7] it was 0.125 µg/mL (≈ 0.175 µM); in series [8], 0.008 µg/mL (≈ 0.0112 µM); in [9], 1 µg/mL (≈ 1.4 µM); in series [10], 0.008 µg/mL (≈ 0.0112 µM); in [11] it was 0.25 µg/mL (≈ 0.349 µM). Further, the MIC in [12] was 0.06 µg/mL (≈ 0.0838 µM); in series [13], 0.06 µg/mL (≈ 0.0838 µM); in [14], 0.008 µg/mL (≈ 0.0112 µM); in series [15], 0.008 µg/mL (≈ 0.0112 µM); in [16], 0.06 µg/mL (≈ 0.0838 µM); in series [17] it was 0.008 µg/mL (≈ 0.0112 µM). Moreover, the MIC in series [18] was 0.008 µg/mL (≈ 0.0112 µM); in series [19], 8 µg/mL (≈ 11.2 µM); in series [20], 0.25 µg/mL (≈ 0.349 µM); in [21], 16 µg/mL (≈ 22.4 µM); in series [22], 0.008 µg/mL (≈ 0.0112 µM).
Consider `CC(C)(O/N=C(\C(=O)N[C@@H]1C(=O)N2C(C(=O)O)=C(CNC(=O)c3ccc4cc(O)c(O)cc4c3)CSC12)c1csc(N)n1)C(=O)O` (some centres not stated), for which the MIC in [23] amounted to 16 µg/mL (≈ 23.9 µM); in series [24] it was 0.008 µg/mL (≈ 0.0119 µM); in [25] it was 0.125 µg/mL (≈ 0.186 µM); in series [26], 0.125 µg/mL (≈ 0.186 µM); in series [27], 0.008 µg/mL (≈ 0.0119 µM); in series [28], 0.25 µg/mL (≈ 0.373 µM). Also, the MIC in [9] was greater than 128 µg/mL; in series [11], 16 µg/mL (≈ 23.9 µM); in [17] it was 0.125 µg/mL (≈ 0.186 µM); in series [18], 0.03 µg/mL (≈ 0.0447 µM); in [19], 8 µg/mL (≈ 11.9 µM); in series [22] it was 0.008 µg/mL (≈ 0.0119 µM).
For the compound `CC(C)(O/N=C(\C(=O)N[C@@H]1C(=O)N2C(C(=O)O)=C(CNC(=O)c3cnc4cc(O)c(O)cc4n3)CSC12)c1csc(N)n1)C(=O)O` (some centres not stated), the MIC came out at 0.008 µg/mL (≈ 0.0119 µM) in series [29]; 1 µg/mL (≈ 1.49 µM) in series [7]; 8 µg/mL (≈ 11.9 µM) in [8]; 8 µg/mL (≈ 11.9 µM) in series [9]; 0.5 µg/mL (≈ 0.743 µM) in [11]; 0.03 µg/mL (≈ 0.0446 µM) in [12]. The MIC amounted to 0.03 µg/mL (≈ 0.0446 µM) in series [13]; 0.008 µg/mL (≈ 0.0119 µM) in [15]; 0.008 µg/mL (≈ 0.0119 µM) in series [17]; 8 µg/mL (≈ 11.9 µM) in [19]; 0.25 µg/mL (≈ 0.372 µM) in series [20]; 0.008 µg/mL (≈ 0.0119 µM) in series [22].
For `CCn1cc(C(=O)NCC2=C(C(=O)O)N3C(=O)[C@@H](NC(=O)/C(=N\OC(C)(C)C(=O)O)c4csc(N)n4)C3SC2)c(=O)c2c(C#N)c(O)c(O)cc21` (some centres not stated), the MIC in series [30] came out at 0.03 µg/mL (≈ 0.0405 µM); in series [31] it was 0.008 µg/mL (≈ 0.0108 µM); in series [29], 0.008 µg/mL (≈ 0.0108 µM); in [32] it was 0.008 µg/mL (≈ 0.0108 µM); in [8], 0.008 µg/mL (≈ 0.0108 µM); in [9], 0.5 µg/mL (≈ 0.675 µM). Besides, the MIC in series [11] amounted to 0.015 µg/mL (≈ 0.0203 µM); in series [12], 0.015 µg/mL (≈ 0.0203 µM); in series [13], 0.015 µg/mL (≈ 0.0203 µM); in series [15], 0.008 µg/mL (≈ 0.0108 µM); in series [17] it was 0.008 µg/mL (≈ 0.0108 µM). The same compound had a pKa in [33] of less than 5.5.
Regarding `CC(C)(O/N=C(\C(=O)N[C@@H]1C(=O)N2C(C(=O)O)=C(CCNC(=O)c3cc(O)c(O)c(Br)c3)CSC12)c1csc(N)n1)C(=O)O` (some centres not stated), the MIC was found to be 1 µg/mL (≈ 1.4 µM) in series [23]; 16 µg/mL (≈ 22.4 µM) in series [34]; 16 µg/mL (≈ 22.4 µM) in series [35]; 0.008 µg/mL (≈ 0.0112 µM) in [8]; 8 µg/mL (≈ 11.2 µM) in series [9]; 0.008 µg/mL (≈ 0.0112 µM) in series [10]. Moreover, the MIC in series [11] came to 2 µg/mL (≈ 2.8 µM); in [12], 0.015 µg/mL (≈ 0.021 µM); in series [13], 0.03 µg/mL (≈ 0.042 µM); in [14], 0.008 µg/mL (≈ 0.0112 µM); in series [15] it was 0.008 µg/mL (≈ 0.0112 µM); in series [16], 0.008 µg/mL (≈ 0.0112 µM). Also, the MIC worked out at 0.015 µg/mL (≈ 0.021 µM) in series [17]; 0.008 µg/mL (≈ 0.0112 µM) in series [18]; 4 µg/mL (≈ 5.61 µM) in [19]; 0.25 µg/mL (≈ 0.35 µM) in series [20]; 0.008 µg/mL (≈ 0.0112 µM) in series [22]. Besides, in series [4], the Activity was 99%. In addition, in series [5], the dose excreted amounted to 17.5%.
